In patent US20250099420A1, “SMALL MOLECULE MODULATORS OF GPR139 COMPLEX” (University of Florida Research Foundation, Incorporated, priority 2022, published 2025):

Key:
GPR139 [1] = biological target: T1, GPR139 (Homo sapiens, UniProt Q6DWJ6); experiment: GPR139 Agonist titration / agonist counterscreen assay (calcium detection, HEK-GPR139 cells); type: cell-based; design: expressed in transfected cells; host or cells: HEK Aequorin cells, Maxcyte transient transfection; conditions: agonist counterscreen of the antagonists; for EC50: scientific notation, molarity, read-out: GRP139 Agonist activity EC50
T1 sequence (Q6DWJ6 1-353): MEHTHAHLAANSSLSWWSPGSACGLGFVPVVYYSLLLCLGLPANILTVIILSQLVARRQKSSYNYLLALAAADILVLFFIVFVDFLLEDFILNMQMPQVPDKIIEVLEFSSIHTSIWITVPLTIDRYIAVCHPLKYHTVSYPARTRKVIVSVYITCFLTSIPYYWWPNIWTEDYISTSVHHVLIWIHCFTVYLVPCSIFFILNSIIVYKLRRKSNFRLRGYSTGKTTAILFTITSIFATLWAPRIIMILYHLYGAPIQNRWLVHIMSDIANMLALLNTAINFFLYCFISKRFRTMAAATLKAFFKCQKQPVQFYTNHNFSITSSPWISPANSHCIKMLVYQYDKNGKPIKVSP
Protocol: GPR activity was assessed using a calcium detection assay. […] Negative control samples were treated with DMSO. […] Intracellular calcium was measured using Calcium 5.

parental HEK cells = experiment: HEK parental Antagonist Counterscreen Assay (non-transfected cells, acetylcholine control); type: cell-based; conditions: for EC50: Homo sapiens, HEK293, acetylcholine as control, scientific notation, molarity
GPR139 [2] = biological target: T1, GPR139; experiment: GPR139 Antagonist titration assay (calcium detection, HEK-GPR139 cells, vs EC80 of S-JNJ-63533054); conditions: for GPR139 Antagonist Activity Averaged Max % Response (±St. Dev.): activity relative to known control; for GPR139 Antagonist Activity Lipophilic Efficiency (logD): based on logD; for GPR139 Antagonist Activity Lipophilic Efficiency (logP): based on logP; for GPR139 Antagonist Activity Hill Slope: fitted dose-response curve

Structure (SMILES) | GRP139 Agonist activity Averaged Max % Response (±St. Dev.) (GPR139 [1]) | EC50 (GPR139 [1]) [µM] | HEK antagonist activity Averaged Max % Response (±St. Dev.) (parental HEK cells) | EC50 (parental HEK cells) [µM] | EC50 (GPR139 [2]) [µM] | GPR139 Antagonist Activity Ligand Efficiency (GPR139 [2]) | GPR139 Antagonist Activity Averaged Max % Response (±St. Dev.) (GPR139 [2]) [%] | GPR139 Antagonist Activity Lipophilic Efficiency (logD) (GPR139 [2]) | GPR139 Antagonist Activity Lipophilic Efficiency (logP) (GPR139 [2]) | GPR139 Antagonist Activity Hill Slope (GPR139 [2]) | GRP139 Agonist activity Hill Slope (GPR139 [1])
COc1cc(C(=O)Nc2ccc(N3C(=O)c4ccc(Cl)cc4C3=O)c(C)c2)cc(OC)c1OC [SR-01000419723] | 3.98 ± 7.81% | > 10.6 | 25.06 ± 17.50% | > 10.6 | 2.1 | 0.23 | 82.63 ± 2.69 | 1.36 | 1.36 | 0.63 | 
CC(=O)N1N=C(c2ccc(C)cc2)CC1c1ccccc1F (centres unmarked) [SR-01000429850] | 4.88 ± 6.79% |  | −3.2E+0 ± 5.20 ^ % | > 15.5 |  | 0.31 | 48.35 ± 1.75 | 1.00 | 1.00 |  | 
O=C(Nn1c(-c2cccc(Cl)c2)nc2ccccc2c1=O)c1cc(Br)ccc1Cl [SR-01000433654] | 7.71 ± 3.46% | > 10.9 | 23.11 ± 4.71% | > 10.9 | 7 | 0.25 | 82.91 ± 7.41 | −712.7E−3 | −712.7E−3 | 0.97 | 
O=c1c(-c2ccc(Cl)cc2)c(C(F)(F)F)oc2cc(O)ccc12 [SR-01000438114] | 68.19 ± 17.63% | 9.1 | 104.21 ± 5.67% | 4.2 | 0.98 | 0.37 | 82.02 ± 2.67 | 2.55 | 1.57 | 1.59 | 1.01
Cc1ccc(Oc2ccc(OCC(=O)N3C(C)CCCC3C)cc2)cc1 (centres unmarked) [SR-01000445554] | 28.29 ± 7.43% | > 13.6 | 26.51 ± 5.44% | > 13.6 | > 4.5 | 0.29 | 80.54 ± 5.09 | 0.71 | 0.71 |  | 
CCCc1sc(N2CCN(C(=O)c3ccccc3)CC2)nc1-c1ccccc1 [SR-01000451510] | −9.5E+0 ± 9.17 ^ % | > 11.7 | 16.06 ± 4.81% | > 11.7 | 8.8 | 0.25 | 57.55 ± 8.35 | −866.9E−3 | −866.9E−3 | 1.89 | 
O=C(NCCC1CCCCC1)N1c2ccccc2Sc2ccccc21 [SR-01000452455] | 15.11 ± 5.37% | > 12.5 | 0.92 ± 5.75% | > 12.5 | 3.6 | 0.32 | 87.35 ± 5.76 | 0.49 | 0.49 | 1.28 | 
COc1cccc(OC)c1C(=O)Oc1ccc2c(=O)c(-c3ccc(Cl)cc3)c(C(F)(F)F)oc2c1 [SR-01000471218] | 19.55 ± 6.15% | > 10.5 | 69.47 ± 1.93% | 10.1 | 1.1 | 0.24 | 90.79 ± 3.84 | −130.5E−3 | −130.5E−3 | 1.41 | 
CCn1cc(Cl)c(C(=O)OCC23CCC4c5ccccc5OC(C)(CC2C)C4C3C)n1 (centres unmarked) [SR-01000479575] | −2.2E+0 ± 2.25 ^ % |  | 11.60 ± 7.12% | > 7.6 |  | 0.24 | 58.09 ± 4.56 | 0.55 | 0.55 | 2.37 | 
Cc1cc(C(F)(F)F)nc(SCC(=O)Nc2cccc(C(F)(F)F)c2)c1C#N [SR-01000507831] | 2.74 ± 8.83% | > 13.9 | 11.97 ± 1.54% | > 13.9 | > 13.9 | 0.24 | 49.37 ± 5.06 | −233.9E−3 | −233.9E−3 |  | 
CCCCCCOC(=S)SCC(=O)Nc1ccccc1 [SR-01000508699] | 25.84 ± 3.55% | > 12 | 23.85 ± 9.06% | > 12 | 2.7 | 0.39 | 85.61 ± 2.70 | 0.57 | 0.57 | 1.30 | 
